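Cells were grown in 96-well plates and exposed to each compound for 48 hours at five concentrations; endpoints were interpolated linearly between bracketing concentrations, or set to the highest concentration if not reached. GI50 is the concentration that inhibits growth by half.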 Calls of active or inactive are those of the source. Cut-off read from the data, not from the text of the source: active = GI50 up to about 1.1 µM and inactive = higher.
Legend:
Test in all cases: NCI tumour cell line growth inhibition, 48 h
UACC-62 = tested on: UACC-62
SK-MEL-5 = tested on: SK-MEL-5
SW-620 = tested on: SW-620
KM12 = tested on: KM12
OVCAR-3 = tested on: OVCAR-3
SN12C = tested on: SN12C
NCI-H23 = tested on: NCI-H23
HCT-116 = tested on: HCT-116
786-0 = tested on: 786-0
PC-3 = tested on: PC-3
SF-295 = tested on: SF-295
MOLT-4 = tested on: MOLT-4
NCI-H226 = tested on: NCI-H226
A498 = tested on: A498
SK-MEL-28 = tested on: SK-MEL-28
OVCAR-8 = tested on: OVCAR-8
K562 = tested on: K562
M14 = tested on: M14
CAKI-1 = tested on: CAKI-1
SNB-75 = tested on: SNB-75

SMILES	GI50 (UACC-62)	GI50 (SK-MEL-5)	GI50 (SW-620)	GI50 (KM12)	GI50 (OVCAR-3)	GI50 (SN12C)	GI50 (NCI-H23)	GI50 (HCT-116)	GI50 (786-0)	GI50 (PC-3)	GI50 (SF-295)	GI50 (MOLT-4)	GI50 (NCI-H226)	GI50 (A498)	GI50 (SK-MEL-28)	GI50 (OVCAR-8)	GI50 (K562)	GI50 (M14)	GI50 (CAKI-1)	GI50 (SNB-75)
O=C(O)c1cccc(OCCO)c1	> 100 µM (inactive)	> 100 µM (inactive)	> 100 µM (inactive)	> 100 µM (inactive)	> 100 µM (inactive)	> 100 µM (inactive)	> 100 µM (inactive)	> 100 µM (inactive)	> 100 µM (inactive)	> 100 µM (inactive)	> 100 µM (inactive)	> 100 µM (inactive)	> 100 µM (inactive)	> 100 µM (inactive)	> 100 µM (inactive)	> 100 µM (inactive)	> 100 µM (inactive)	> 100 µM (inactive)	> 100 µM (inactive)	
CC(=O)NC(CS/N=N/c1[nH]cnc1C(N)=O)C(=O)O (centres undefined)	4.21 µM (inactive)	27 µM (inactive)	6.15 µM (inactive)	6.71 µM (inactive)	10 µM (inactive)	3.21 µM (inactive)	38.9 µM (inactive)	5.5 µM (inactive)	13 µM (inactive)	6.38 µM (inactive)	4.16 µM (inactive)	3.38 µM (inactive)	2.51 µM (inactive)		> 100 µM (inactive)	2.06 µM (inactive)	0.791 µM (active)	2.59 µM (inactive)	2.55 µM (inactive)	16.9 µM (inactive)
COC(=O)[C@@H](O)[C@]1(C(=O)OC)C2O[C@@H](OC)[C@@H]1CCCCCC[C@H]2O	> 100 µM (inactive)	> 100 µM (inactive)	> 100 µM (inactive)	> 100 µM (inactive)	> 100 µM (inactive)	> 100 µM (inactive)	> 100 µM (inactive)	> 100 µM (inactive)	> 100 µM (inactive)	> 100 µM (inactive)	> 100 µM (inactive)	> 100 µM (inactive)	> 100 µM (inactive)		> 100 µM (inactive)	> 100 µM (inactive)	> 100 µM (inactive)	> 100 µM (inactive)	> 100 µM (inactive)	> 100 µM (inactive)
Nc1nc(=O)[nH]cc1F [FLUCYTOSINE]	> 100 µM (inactive)	> 100 µM (inactive)	> 100 µM (inactive)	> 100 µM (inactive)	> 100 µM (inactive)	> 100 µM (inactive)	> 100 µM (inactive)	> 100 µM (inactive)	> 100 µM (inactive)	> 100 µM (inactive)	> 100 µM (inactive)	> 100 µM (inactive)	> 100 µM (inactive)	> 100 µM (inactive)	> 100 µM (inactive)	> 100 µM (inactive)	> 100 µM (inactive)	> 100 µM (inactive)	> 100 µM (inactive)	
Cc1cc(C)nc(NS(=O)(=O)c2ccc(NNc3c4ccccc4nc4c(C(=O)Nc5ccc(S(N)(=O)=O)cc5)cccc34)cc2)n1	27.7 µM (inactive)	30.5 µM (inactive)	45.3 µM (inactive)	34 µM (inactive)	25.9 µM (inactive)	29.9 µM (inactive)	21.2 µM (inactive)	28.2 µM (inactive)	66.5 µM (inactive)	18.6 µM (inactive)	54 µM (inactive)	17.1 µM (inactive)	32 µM (inactive)		25.1 µM (inactive)	34.4 µM (inactive)	27.9 µM (inactive)	> 100 µM (inactive)	50.1 µM (inactive)	18.6 µM (inactive)
COc1ccc(CNc2nc(NCc3ccc(OC)cc3)nc(NC3CCCCC3)n2)cc1	2 µM (inactive)	3.56 µM (inactive)	3.56 µM (inactive)	1.5 µM (inactive)	2.2 µM (inactive)	3.07 µM (inactive)		3.12 µM (inactive)	2.81 µM (inactive)	3.21 µM (inactive)	1.34 µM (inactive)	> 100 µM (inactive)	1.93 µM (inactive)	48.6 µM (inactive)	> 100 µM (inactive)	2.6 µM (inactive)	5.35 µM (inactive)	2.15 µM (inactive)	1.07 µM (active)	
CNc1cc([N+](=O)[O-])ccc1C(=O)N1CCC[C@H]1CO	> 100 µM (inactive)		> 100 µM (inactive)	> 100 µM (inactive)	> 100 µM (inactive)	> 100 µM (inactive)		> 100 µM (inactive)	> 100 µM (inactive)	> 100 µM (inactive)	> 100 µM (inactive)	> 100 µM (inactive)	> 100 µM (inactive)	> 100 µM (inactive)	> 100 µM (inactive)	> 100 µM (inactive)	> 100 µM (inactive)	> 100 µM (inactive)		> 100 µM (inactive)
C=C1C(=O)O[C@@H]2/C=C(\C)CC/C=C(\C)CC[C@@]12O	9.35 µM (inactive)	4.59 µM (inactive)	1.04 µM (active)	8.95 µM (inactive)	2.4 µM (inactive)	2.44 µM (inactive)	1.67 µM (inactive)	2.42 µM (inactive)	1.37 µM (inactive)	4.28 µM (inactive)	10.9 µM (inactive)	1.41 µM (inactive)	13.8 µM (inactive)	9.12 µM (inactive)	3.99 µM (inactive)	1.91 µM (inactive)	2.42 µM (inactive)	3.7 µM (inactive)	1.35 µM (inactive)	
OCC1c2ccccc2-n2nc(-c3ccccc3)c(O)c21 (centres undefined)	20.7 µM (inactive)	33.3 µM (inactive)	29.3 µM (inactive)	18.4 µM (inactive)	26.7 µM (inactive)	17.6 µM (inactive)	54.7 µM (inactive)	> 10 µM (inactive)	18.2 µM (inactive)	17.6 µM (inactive)	38.5 µM (inactive)	31 µM (inactive)	79.4 µM (inactive)		58.1 µM (inactive)	18.5 µM (inactive)	21.4 µM (inactive)		17.8 µM (inactive)	68.9 µM (inactive)
C/C=C(/C)C(=O)O[C@@H]1CCN2CC[C@H](COC(=O)/C(=C/C)CO)C12 (some centres undefined)	> 100 µM (inactive)	26.9 µM (inactive)	> 100 µM (inactive)	> 100 µM (inactive)	> 100 µM (inactive)	> 100 µM (inactive)	> 100 µM (inactive)	48.8 µM (inactive)	> 95.3 µM (inactive)	> 100 µM (inactive)	> 89.1 µM (inactive)	25.9 µM (inactive)	> 100 µM (inactive)		> 75 µM (inactive)	> 100 µM (inactive)	11.2 µM (inactive)	19.6 µM (inactive)	> 100 µM (inactive)	> 95.3 µM (inactive)
c1cc(C[S+]2CCCC2)oc1C[S+]1CCCC1	> 100 µM (inactive)	> 100 µM (inactive)	> 100 µM (inactive)		> 100 µM (inactive)	> 100 µM (inactive)	> 100 µM (inactive)	> 100 µM (inactive)	> 100 µM (inactive)	> 100 µM (inactive)	> 100 µM (inactive)	> 100 µM (inactive)		53.6 µM (inactive)	> 100 µM (inactive)	> 100 µM (inactive)	> 100 µM (inactive)	> 100 µM (inactive)	> 100 µM (inactive)	> 100 µM (inactive)
CN1N=C(c2ccncc2)OC1c1ccc(Cl)c(Cl)c1 (centres undefined)	> 100 µM (inactive)	> 100 µM (inactive)	> 100 µM (inactive)	> 100 µM (inactive)	72.4 µM (inactive)	> 100 µM (inactive)	> 100 µM (inactive)	> 100 µM (inactive)	83.6 µM (inactive)	> 100 µM (inactive)	> 100 µM (inactive)	44.5 µM (inactive)	> 100 µM (inactive)	82 µM (inactive)	> 100 µM (inactive)	> 100 µM (inactive)	61.8 µM (inactive)	> 100 µM (inactive)	> 100 µM (inactive)	
CCOP(=O)(OCC)C(C)(C)N(C)/C(F)=N/C(F)(F)F	> 100 µM (inactive)	> 100 µM (inactive)	> 100 µM (inactive)	> 100 µM (inactive)	> 100 µM (inactive)	> 100 µM (inactive)	> 100 µM (inactive)	> 100 µM (inactive)	> 100 µM (inactive)	> 100 µM (inactive)	> 100 µM (inactive)	> 100 µM (inactive)	> 100 µM (inactive)		> 100 µM (inactive)	> 100 µM (inactive)	> 100 µM (inactive)	> 100 µM (inactive)	> 100 µM (inactive)	> 100 µM (inactive)
C(/C=N/N=C1NCCCCN1)=N\N=C1NCCCCN1	> 100 µM (inactive)	> 100 µM (inactive)	> 100 µM (inactive)	> 100 µM (inactive)	> 100 µM (inactive)	> 100 µM (inactive)	> 100 µM (inactive)	> 100 µM (inactive)	> 100 µM (inactive)	> 100 µM (inactive)	> 100 µM (inactive)	> 100 µM (inactive)	> 100 µM (inactive)		> 100 µM (inactive)	> 100 µM (inactive)	> 100 µM (inactive)	> 100 µM (inactive)	> 100 µM (inactive)	> 100 µM (inactive)
COC(=O)Nc1nc2cc(Oc3ccc4nc(NC(=O)OC)[nH]c4c3)ccc2[nH]1		0.687 µM (active)	0.855 µM (active)	0.376 µM (active)	0.149 µM (active)	1.78 µM (inactive)	1.81 µM (inactive)	0.438 µM (active)	0.435 µM (active)	0.419 µM (active)	1.58 µM (inactive)	1 µM (active)	0.925 µM (active)		0.713 µM (active)	1.41 µM (inactive)	0.942 µM (active)	0.993 µM (active)	2.32 µM (inactive)	0.701 µM (active)

From ChEMBL document CHEMBL1201862, “PubChem BioAssay data set” (2004)
